The results in this text go back to paper PMC3107525 (The Journal of neuroscience : the official journal of the …, 2011).

Data set [1] has as its target SERT (Rattus norvegicus, UniProt P31652). Type of data set: in vivo. Particulars: exogenously applied, anesthetized rats, mean ± SEM, n = 10.
The target of data set [2] is DAT (Rattus norvegicus, UniProt P23977). It counts as in vivo. Conditions: 10 mg/kg i.p., dorsal striatum.
In data set [3] the target is T1, hSERT WT (Homo sapiens, UniProt P31645). Particulars: 20 μM 5HT or 2 mM DA extracellular.
Data set [4] concerns the target T1, hSERT WT.
The target of data set [5] is T1, hSERT WT. Conditions: gluconate substituted for Cl-.
Data set [6] deals with T2, hSERT Y95F (Homo sapiens, UniProt P31645, Y95F).
Data set [7] deals with hSERT D98G (Homo sapiens, UniProt P31645, D98G).
Data set [8] addresses T1, hSERT WT. Particulars: 0.2-0.5 nM [125I]RTI-55, 1 hour on ice.
For data set [9], the target named is hSERT Y95F/C109A/I179C (Homo sapiens, UniProt P31645, C109A/I179C/Y95F). Briefly: Uptake with MTSET-sensitive mutant in COS-7 cells. Type of data set: cell-based.
Data set [10] addresses T1, hSERT WT. This is another data set of the same source.
Data set [11] has as its target T2, hSERT Y95F. This is another data set of the same source.
For data set [12], the target named is T1, hSERT WT. This is another data set of the same source.
Data set [13] relates to NCCc1ccc(O)c(O)c1. Briefly: cells, lysate or membranes. Particulars: other: substrate uptake, COS-7, 96 well plates, 10 min, room temperature; pH 7.4.
[14] abbreviates: substrate uptake, COS-7, 96 well plates, 10 min, room temperature.
[15] abbreviates: read-out: IC50 for inhibition of [3H]5HT uptake.
Where [16] appears, read: read-out: IC50 for inhibition of [3H]DA uptake.

Where two headings read alike, the source gives them in different places.

Sequence of SERT (P31652 whole entry): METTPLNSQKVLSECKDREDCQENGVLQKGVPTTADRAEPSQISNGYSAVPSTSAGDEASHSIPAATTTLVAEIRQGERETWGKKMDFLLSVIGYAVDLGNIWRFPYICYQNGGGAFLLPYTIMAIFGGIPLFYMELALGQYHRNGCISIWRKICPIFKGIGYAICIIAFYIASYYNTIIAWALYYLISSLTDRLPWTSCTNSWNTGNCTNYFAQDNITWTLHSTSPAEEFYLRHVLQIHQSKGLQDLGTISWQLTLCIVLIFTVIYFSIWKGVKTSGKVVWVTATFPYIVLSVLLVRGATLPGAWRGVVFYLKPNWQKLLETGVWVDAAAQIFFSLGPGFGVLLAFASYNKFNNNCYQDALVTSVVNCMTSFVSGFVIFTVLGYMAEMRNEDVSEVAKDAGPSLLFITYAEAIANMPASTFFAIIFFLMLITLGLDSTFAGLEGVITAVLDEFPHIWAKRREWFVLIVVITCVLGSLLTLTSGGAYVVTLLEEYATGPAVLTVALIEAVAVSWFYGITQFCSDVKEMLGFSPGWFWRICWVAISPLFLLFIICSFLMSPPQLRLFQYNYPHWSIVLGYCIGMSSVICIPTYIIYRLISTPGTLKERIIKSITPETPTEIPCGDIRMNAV
Sequence of DAT (P23977 whole entry): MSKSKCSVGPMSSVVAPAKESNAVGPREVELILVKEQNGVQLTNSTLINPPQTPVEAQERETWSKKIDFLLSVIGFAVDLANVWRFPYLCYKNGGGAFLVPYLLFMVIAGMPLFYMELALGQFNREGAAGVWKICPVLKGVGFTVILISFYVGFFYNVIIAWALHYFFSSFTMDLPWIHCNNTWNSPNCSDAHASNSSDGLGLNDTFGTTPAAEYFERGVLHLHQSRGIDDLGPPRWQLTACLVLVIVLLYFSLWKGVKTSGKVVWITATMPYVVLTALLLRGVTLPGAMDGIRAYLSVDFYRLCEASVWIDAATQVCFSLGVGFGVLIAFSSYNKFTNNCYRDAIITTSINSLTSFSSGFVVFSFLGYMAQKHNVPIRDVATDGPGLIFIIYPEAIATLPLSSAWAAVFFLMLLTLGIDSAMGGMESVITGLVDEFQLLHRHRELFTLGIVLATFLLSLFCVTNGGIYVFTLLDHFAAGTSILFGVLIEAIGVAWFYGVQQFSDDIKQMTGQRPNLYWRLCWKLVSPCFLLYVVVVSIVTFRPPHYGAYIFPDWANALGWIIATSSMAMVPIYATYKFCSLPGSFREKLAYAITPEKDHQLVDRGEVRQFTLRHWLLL

For `NCCc1c[nH]c2ccc(O)cc12` [5HT, serotonin], the “baseline clearance time (T80)” value in [1] is 73.4 ± 8.3 s.
For `CN(C)CCCC1(c2ccc(F)cc2)OCc2cc(C#N)ccc21` (centres unmarked) [Citalopram, citalopram], the “effect on DA clearance time (T80)” value in data set [2] is on record as “unaffected”.
Regarding `NCCc1ccc(O)c(O)c1` [DA, dopamine], the “efflux of preloaded [3H]5HT” value in data set [3] was “substantial and comparable efflux”. Also, the “efflux of preloaded [3H]DA” value in data set [3] is “no significant efflux”. Besides, the Vmax in [4] (setting [14]) came to 2.7 ± 0.65 pmol/well/min; in data set [6] (setting [14]), 2.4 ± 0.52 pmol/well/min. Besides, the “Vmax for DA transport relative to Vmax for 5HT transport” value in data set [4] (times higher) and in [6] (times higher) was 4–5 times each time. The “apparent affinity for Cl- in substrate transport” value in [5] is ~ 100 mM. Moreover, the “baseline clearance time (T80)” value in data set [1] came out at 79.5 ± 4.1 s. Besides, in [7], the DA uptake activity result is “no DA uptake activity”. Also, the “relation of 5HT and DA binding sites” value in [8] is reported as “mutually exclusive”. Also, the “transport of DA” value in [9] (before or after MTSET treatment) is on record as less than 2%. Also, the “mode of inhibition of 5HT uptake” value in [10] is on record as “competitive inhibitor”.
The IC50 is the concentration that gives 50% inhibition. As for `CNC(C)Cc1ccc2c(c1)OCO2` (centres unmarked) [MDMA, 3,4-methylenedioxymethamphetamine], the IC50 in data set [11] (setting [15]) stood at 3100 ± 430 nM; in data set [11] (setting [16]), 940 ± 110 nM; in [12] (setting [15]), 4400 ± 840 nM; in data set [12] (setting [16]) it was 2700 ± 330 nM.
Regarding `C[N+](C)(C)CCSS(C)(=O)=O` [MTSET, [2-(trimethylammonium)ethyl] methane-thiosulfonate], the “decrease of 5HT uptake activity” value in data set [9] (10 mM MTSET, 10 min) is given as greater than 90%.
For orientation: Km means the substrate concentration at which the rate is half of its maximum. hSERT WT (Homo sapiens): in data set [13], the Km was 78 ± 5.7 µM.
